Laboratory results taken from article PMC7156458, “Synthetic biology based construction of biological activity-related library of fungal decalin-containing diterpenoid pyrones” (Nature Communications, 2020).

Target: Aβ42 (Homo sapiens, UniProt P05067)
Test: Th-T (thioflavin-T) assay of Aβ42 aggregation
Assay type: biochemical
Settings: for Th-T fluorescence of Aβ42 with compound, mean of three wells (Fig. 7a source data): concentration 50, unit not given

Aβ42, sequence (P05067 672-713): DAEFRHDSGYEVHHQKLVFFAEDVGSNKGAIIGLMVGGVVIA

C=C1CC[C@@H]2[C@](C)(CC[C@H]3O[C@H](C=C(C)C)C[C@@]23C)[C@@H]1Cc1c(OC)oc(CO)c(C(=O)OC)c1=O [Compound 21]
Th-T fluorescence of Aβ42 with compound, mean of three wells (Fig. 7a source data) (time-course reading M143): 0.5052
Th-T fluorescence of Aβ42 with compound, mean of three wells (Fig. 7a source data) (time-course reading M144): 0.5053
Th-T fluorescence of Aβ42 with compound, mean of three wells (Fig. 7a source data) (time-course reading M145): 0.5045
Th-T fluorescence of Aβ42 (sheet Fig. 7a), mean of three wells (head suffix _10 (concentration 10), reading M63): 0.5289
Th-T fluorescence of Aβ42 (sheet Fig. 7a), mean of three wells (head suffix _10 (concentration 10), reading M64): 0.6173
Th-T fluorescence of Aβ42 (sheet Fig. 7a), mean of three wells (head suffix _10 (concentration 10), reading M65): 0.6561
Th-T fluorescence of Aβ42 (sheet Fig. 7a), mean of three wells (head suffix _10 (concentration 10), reading M66): 0.6931
Th-T fluorescence of Aβ42 (sheet Fig. 7a), mean of three wells (head suffix _10 (concentration 10), reading M67): 0.7435
Th-T fluorescence of Aβ42 (sheet Fig. 7a), mean of three wells (head suffix _10 (concentration 10), reading M68): 0.7523
Th-T fluorescence of Aβ42 (sheet Fig. 7a), mean of three wells (head suffix _10 (concentration 10), reading M69): 0.7892
Th-T fluorescence of Aβ42 (sheet Fig. 7a), mean of three wells (head suffix _10 (concentration 10), reading M70): 0.7946
Th-T fluorescence of Aβ42 (sheet Fig. 7a), mean of three wells (head suffix _10 (concentration 10), reading M71): 0.8033
Th-T fluorescence of Aβ42 (sheet Fig. 7a), mean of three wells (head suffix _10 (concentration 10), reading M72): 0.7933
Th-T fluorescence of Aβ42 (sheet Fig. 7a), mean of three wells (head suffix _10 (concentration 10), reading M73): 0.8223
Th-T fluorescence of Aβ42 (sheet Fig. 7a), mean of three wells (head suffix _10 (concentration 10), reading M74): 0.8738
Th-T fluorescence of Aβ42 (sheet Fig. 7a), mean of three wells (head suffix _10 (concentration 10), reading M75): 0.8711
Th-T fluorescence of Aβ42 (sheet Fig. 7a), mean of three wells (head suffix _10 (concentration 10), reading M76): 0.921
Th-T fluorescence of Aβ42 (sheet Fig. 7a), mean of three wells (head suffix _10 (concentration 10), reading M77): 0.9791
Th-T fluorescence of Aβ42 (sheet Fig. 7a), mean of three wells (head suffix _10 (concentration 10), reading M78): 1.0381
Th-T fluorescence of Aβ42 (sheet Fig. 7a), mean of three wells (head suffix _10 (concentration 10), reading M79): 1.098
Th-T fluorescence of Aβ42 (sheet Fig. 7a), mean of three wells (head suffix _10 (concentration 10), reading M80): 1.155
Th-T fluorescence of Aβ42 (sheet Fig. 7a), mean of three wells (head suffix _10 (concentration 10), reading M81): 1.227
Th-T fluorescence of Aβ42 (sheet Fig. 7a), mean of three wells (head suffix _10 (concentration 10), reading M82): 1.285
Th-T fluorescence of Aβ42 (sheet Fig. 7a), mean of three wells (head suffix _10 (concentration 10), reading M83): 1.378
Th-T fluorescence of Aβ42 (sheet Fig. 7a), mean of three wells (head suffix _10 (concentration 10), reading M84): 1.428
Th-T fluorescence of Aβ42 (sheet Fig. 7a), mean of three wells (head suffix _20 (concentration 20), reading M63): 0.2431
Th-T fluorescence of Aβ42 (sheet Fig. 7a), mean of three wells (head suffix _20 (concentration 20), reading M64): 0.2464
Th-T fluorescence of Aβ42 (sheet Fig. 7a), mean of three wells (head suffix _20 (concentration 20), reading M65): 0.2511
Th-T fluorescence of Aβ42 (sheet Fig. 7a), mean of three wells (head suffix _20 (concentration 20), reading M66): 0.2535
Th-T fluorescence of Aβ42 (sheet Fig. 7a), mean of three wells (head suffix _20 (concentration 20), reading M67): 0.2562
Th-T fluorescence of Aβ42 (sheet Fig. 7a), mean of three wells (head suffix _20 (concentration 20), reading M68): 0.2616
Th-T fluorescence of Aβ42 (sheet Fig. 7a), mean of three wells (head suffix _20 (concentration 20), reading M69): 0.2677
Th-T fluorescence of Aβ42 (sheet Fig. 7a), mean of three wells (head suffix _20 (concentration 20), reading M70): 0.2739
Th-T fluorescence of Aβ42 (sheet Fig. 7a), mean of three wells (head suffix _20 (concentration 20), reading M71): 0.2831
Th-T fluorescence of Aβ42 (sheet Fig. 7a), mean of three wells (head suffix _20 (concentration 20), reading M72): 0.2882
Th-T fluorescence of Aβ42 (sheet Fig. 7a), mean of three wells (head suffix _20 (concentration 20), reading M73): 0.2974
Th-T fluorescence of Aβ42 (sheet Fig. 7a), mean of three wells (head suffix _20 (concentration 20), reading M74): 0.3106
Th-T fluorescence of Aβ42 (sheet Fig. 7a), mean of three wells (head suffix _20 (concentration 20), reading M75): 0.3227
Th-T fluorescence of Aβ42 (sheet Fig. 7a), mean of three wells (head suffix _20 (concentration 20), reading M76): 0.3296
Th-T fluorescence of Aβ42 (sheet Fig. 7a), mean of three wells (head suffix _20 (concentration 20), reading M77): 0.3505
Th-T fluorescence of Aβ42 (sheet Fig. 7a), mean of three wells (head suffix _20 (concentration 20), reading M78): 0.3679
Th-T fluorescence of Aβ42 (sheet Fig. 7a), mean of three wells (head suffix _20 (concentration 20), reading M79): 0.3859
Th-T fluorescence of Aβ42 (sheet Fig. 7a), mean of three wells (head suffix _20 (concentration 20), reading M80): 0.4085
Th-T fluorescence of Aβ42 (sheet Fig. 7a), mean of three wells (head suffix _20 (concentration 20), reading M81): 0.4348
Th-T fluorescence of Aβ42 (sheet Fig. 7a), mean of three wells (head suffix _20 (concentration 20), reading M82): 0.4734
Th-T fluorescence of Aβ42 (sheet Fig. 7a), mean of three wells (head suffix _20 (concentration 20), reading M83): 0.5074
Th-T fluorescence of Aβ42 (sheet Fig. 7a), mean of three wells (head suffix _20 (concentration 20), reading M84): 0.5384
Th-T fluorescence of Aβ42 (sheet Fig. 7a), mean of three wells (head suffix _50 (concentration 50), reading M63): 0.2314
Th-T fluorescence of Aβ42 (sheet Fig. 7a), mean of three wells (head suffix _50 (concentration 50), reading M64): 0.2365
Th-T fluorescence of Aβ42 (sheet Fig. 7a), mean of three wells (head suffix _50 (concentration 50), reading M65): 0.2406
Th-T fluorescence of Aβ42 (sheet Fig. 7a), mean of three wells (head suffix _50 (concentration 50), reading M66): 0.2402
Th-T fluorescence of Aβ42 (sheet Fig. 7a), mean of three wells (head suffix _50 (concentration 50), reading M67): 0.2439
Th-T fluorescence of Aβ42 (sheet Fig. 7a), mean of three wells (head suffix _50 (concentration 50), reading M68): 0.2485
Th-T fluorescence of Aβ42 (sheet Fig. 7a), mean of three wells (head suffix _50 (concentration 50), reading M69): 0.2533
Th-T fluorescence of Aβ42 (sheet Fig. 7a), mean of three wells (head suffix _50 (concentration 50), reading M70): 0.2583
Th-T fluorescence of Aβ42 (sheet Fig. 7a), mean of three wells (head suffix _50 (concentration 50), reading M71): 0.2613
Th-T fluorescence of Aβ42 (sheet Fig. 7a), mean of three wells (head suffix _50 (concentration 50), reading M72): 0.2693
